Results as given in ChEMBL document CHEMBL4765365, “Design, synthesis and antitumour evaluation of pyrrolo[1,2-f]-phenanthridine and dibenzo[f,h]pyrrolo[1,2-b]isoquinoline derivatives” (Eur J Med Chem, 2020).

How the values were obtained:
HCT-116 [1] = experiment: Cytotoxicity against human HCT-116 cells assessed as reduction in cell viability incubated for 72 hrs by XTT assay; assay type: functional, cell-based; settings: HCT-116, 72 h
HCT-116 [2] = experiment: Induction of cell cycle arrest in human HCT-116 cells assessed as G0 phase at 0.375 uM incubated for 24 hrs by PI staining based flow cytometry analysis (reference value: 12.5 +/- 5.4 %); assay type: functional
HCT-116 [3] = experiment: Induction of cell cycle arrest in human HCT-116 cells assessed as G0 phase at 0.375 uM incubated for 36 hrs by PI staining based flow cytometry analysis (reference value: 2.5 +/- 0.8 %); assay type: functional
HCT-116 [4] = experiment: Induction of cell cycle arrest in human HCT-116 cells assessed as S phase at 0.375 uM incubated for 36 hrs by PI staining based flow cytometry analysis (reference value: 7.9 +/- 3.7 %); assay type: functional
HCT-116 [5] = experiment: Induction of cell cycle arrest in human HCT-116 cells assessed as G1 phase at 0.75 uM measured at 0 hrs by PI staining based flow cytometry analysis (reference value: 52 +/- 5.1 %); assay type: functional
HCT-116 [6] = experiment: Induction of cell cycle arrest in human HCT-116 cells assessed as G0 phase at 0.75 uM incubated for 12 hrs by PI staining based flow cytometry analysis (reference value: 2.2 +/- 1.7 %); assay type: functional
HCT-116 [7] = experiment: Induction of cell cycle arrest in human HCT-116 cells assessed as G1 phase at 0.75 uM incubated for 12 hrs by PI staining based flow cytometry analysis (reference value: 53.6 +/- 4.5 %); assay type: functional
HCT-116 [8] = experiment: Induction of cell cycle arrest in human HCT-116 cells assessed as S phase at 0.75 uM incubated for 12 hrs by PI staining based flow cytometry analysis (reference value: 15.5 +/- 0.2 %); assay type: functional
HCT-116 [9] = experiment: Induction of cell cycle arrest in human HCT-116 cells assessed as G2/M phase at 0.75 uM incubated for 12 hrs by PI staining based flow cytometry analysis (reference value: 21.7 +/- 1.9 %); assay type: functional
HCT-116 [10] = experiment: Induction of cell cycle arrest in human HCT-116 cells assessed as G1 phase at 0.75 uM incubated for 24 hrs by PI staining based flow cytometry analysis (reference value: 55 +/- 9.8 %); assay type: functional
HCT-116 [11] = experiment: Induction of cell cycle arrest in human HCT-116 cells assessed as G2/M phase at 0.75 uM incubated for 24 hrs by PI staining based flow cytometry analysis (reference value: 9.3 +/- 0.8 %); assay type: functional
HCT-116 [12] = experiment: Induction of cell cycle arrest in human HCT-116 cells assessed as G0 phase at 0.75 uM incubated for 36 hrs by PI staining based flow cytometry analysis (reference value: 2.5 +/- 0.8 %); assay type: functional
HCT-116 [13] = experiment: Induction of cell cycle arrest in human HCT-116 cells assessed as G1 phase at 0.75 uM incubated for 36 hrs by PI staining based flow cytometry analysis (reference value: 57.4 +/- 1.3 %); assay type: functional
HCT-116 [14] = experiment: Induction of cell cycle arrest in human HCT-116 cells assessed as G1 phase at 1.5 uM incubated for 12 hrs by PI staining based flow cytometry analysis (reference value: 53.6 +/- 4.5 %); assay type: functional
HCT-116 [15] = experiment: Induction of cell cycle arrest in human HCT-116 cells assessed as S phase at 1.5 uM incubated for 36 hrs by PI staining based flow cytometry analysis (reference value: 7.9 +/- 3.7 %); assay type: functional
NCI-H460 [16] = experiment: Induction of cell cycle arrest in human NCI-H460 cells assessed as G1 phase at 0.75 uM incubated for 12 hrs by PI staining based flow cytometry analysis (reference value: 66 +/- 10 %); assay type: functional
NCI-H460 [17] = experiment: Induction of cell cycle arrest in human NCI-H460 cells assessed as G2/M phase at 0.75 uM incubated for 12 hrs by PI staining based flow cytometry analysis (reference value: 22.9 +/- 6.8 %); assay type: functional
NCI-H460 [18] = experiment: Induction of cell cycle arrest in human NCI-H460 cells assessed as G1 phase at 0.75 uM incubated for 24 hrs by PI staining based flow cytometry analysis (reference value: 56.8 +/- 7.6 %); assay type: functional
NCI-H460 [19] = experiment: Induction of cell cycle arrest in human NCI-H460 cells assessed as G1 phase at 1.5 uM measured at 0 hrs by PI staining based flow cytometry analysis (reference value: 53.4 +/- 4.8 %); assay type: functional
NCI-H460 [20] = experiment: Induction of cell cycle arrest in human NCI-H460 cells assessed as S phase at 1.5 uM measured at 0 hrs by PI staining based flow cytometry analysis (reference value: 12.2 +/- 2.8 %); assay type: functional
NCI-H460 [21] = experiment: Induction of cell cycle arrest in human NCI-H460 cells assessed as G0 phase at 1.5 uM incubated for 12 hrs by PI staining based flow cytometry analysis (reference value: 2.9 +/- 2.4 %); assay type: functional
NCI-H460 [22] = experiment: Induction of cell cycle arrest in human NCI-H460 cells assessed as G2/M phase at 3 uM measured at 0 hrs by PI staining based flow cytometry analysis (reference value: 25.2 +/- 4 %); assay type: functional
NCI-H460 [23] = experiment: Induction of cell cycle arrest in human NCI-H460 cells assessed as G0 phase at 3 uM incubated for 12 hrs by PI staining based flow cytometry analysis (reference value: 2.9 +/- 2.4 %); assay type: functional
NCI-H460 [24] = experiment: Induction of cell cycle arrest in human NCI-H460 cells assessed as G1 phase at 3 uM incubated for 12 hrs by PI staining based flow cytometry analysis (reference value: 66 +/- 10 %); assay type: functional
NCI-H460 [25] = experiment: Induction of cell cycle arrest in human NCI-H460 cells assessed as S phase at 3 uM incubated for 12 hrs by PI staining based flow cytometry analysis (reference value: 11.2 +/- 4.3 %); assay type: functional
NCI-H460 [26] = experiment: Induction of cell cycle arrest in human NCI-H460 cells assessed as G1 phase at 3 uM incubated for 36 hrs by PI staining based flow cytometry analysis (reference value: 57.9 +/- 3.6 %); assay type: functional
NCI-H460 [27] = experiment: Induction of apoptosis in human NCI-H460 cells assessed as necrotic cells at 1.5 uM incubated for 48 hrs by annexin V-FITC and PI staining based flow cytometry analysis (reference value: 0.7 %); assay type: functional
NCI-H460 [28] = experiment: Induction of apoptosis in human NCI-H460 cells assessed as viable cells at 3 uM incubated for 48 hrs by annexin V-FITC and PI staining based flow cytometry analysis (reference value: 90.1 %); assay type: functional; settings: read-out: Activity
NCI-H460 [29] = experiment: Induction of apoptosis in human NCI-H460 cells assessed as early apoptotic cells at 3 uM incubated for 48 hrs by annexin V-FITC and PI staining based flow cytometry analysis (reference value: 2 %); assay type: functional
NCI-H460 [30] = experiment: Induction of apoptosis in human NCI-H460 cells assessed as early apoptotic cells at 6 uM incubated for 48 hrs by annexin V-FITC and PI staining based flow cytometry analysis (reference value: 2 %); assay type: functional
NCI-H460 [31] = experiment: Induction of apoptosis in human NCI-H460 cells assessed as late apoptotic cells at 6 uM incubated for 48 hrs by annexin V-FITC and PI staining based flow cytometry analysis (reference value: 7.3 %); assay type: functional
NCI-H460 [32] = experiment: Induction of apoptosis in human NCI-H460 cells assessed as necrotic cells at 6 uM incubated for 48 hrs by annexin V-FITC and PI staining based flow cytometry analysis (reference value: 0.7 %); assay type: functional

SMILES: OCc1cn2c3ccccc3c3ccccc3c2c1CO
- IC50 (HCT-116 [1]): 1120 nM
- Activity (HCT-116 [2]): 13.8%
- Activity (HCT-116 [3]): 2.8%
- Activity (HCT-116 [4]): 8.2%
- Activity (HCT-116 [5]): 52%
- Activity (HCT-116 [6]): 1.7%
- Activity (HCT-116 [7]): 51.6%
- Activity (HCT-116 [8]): 16.9%
- Activity (HCT-116 [9]): 23.2%
- Activity (HCT-116 [10]): 57.4%
- Activity (HCT-116 [11]): 25.6%
- Activity (HCT-116 [12]): 6.9%
- Activity (HCT-116 [13]): 65.1%
- Activity (HCT-116 [14]): 48.8%
- Activity (HCT-116 [15]): 6.1%
- Activity (NCI-H460 [16]): 53%
- Activity (NCI-H460 [17]): 23.7%
- Activity (NCI-H460 [18]): 54%
- Activity (NCI-H460 [19]): 55.5%
- Activity (NCI-H460 [20]): 12%
- Activity (NCI-H460 [21]): 2.6%
- Activity (NCI-H460 [22]): 24.6%
- Activity (NCI-H460 [23]): 2.5%
- Activity (NCI-H460 [24]): 53.3%
- Activity (NCI-H460 [25]): 17.3%
- Activity (NCI-H460 [26]): 51.8%
- Activity (NCI-H460 [27]): 0.5%
- viability at 3 µM (NCI-H460 [28]): 36.2%
- Activity (NCI-H460 [29]): 10.8%
- Activity (NCI-H460 [30]): 29.2%
- Activity (NCI-H460 [31]): 55.8%
- Activity (NCI-H460 [32]): 1.6%
